Article PMC5969508, “Stapled peptides as a new technology to investigate protein–protein interactions in human platelets” (Chemical Science, 2018)
Read-outs that look alike come from different tables or passages of the source.

What was measured:
human platelets [1] = experiment: Platelet activation markers (PAC-1, CD62P, CD63 binding) by flow cytometry; format: cell-based; details: for platelet activation markers PAC-1, CD62P, CD63 (in words): washed human platelets, 10 μM, 1 h treatment, flow cytometry (Fig. 5B)
Method: Fig. 5 (A) Functionalised, stapled Bim BH3 peptides induce PS exposure in platelets. […] (B) Stapled Bim BH3 peptides, but not ABT737 nor 21, induce platelet activation. Platelet activation markers (% positive platelets) were investigated following 1 h of peptide treatment. [drawing 10] PAC-1, [drawing 11] CD62P and [drawing 12] CD63 binding. Statistical significance compared to 20: ****P < 0.0001, ***P between 0.0001 and 0.0005, **P between 0.0010 and 0.0050 ns = non-significant.
(§1) Ethical approval for this study was obtained from the Faculty Research Ethics Committee at Anglia Ruskin University, Cambridge, UK.
(§2) 1.1 Preparation of washed platelet suspension
Blood was collected into 11 mM sodium citrate and washed platelets were prepared as follows: Platelet-rich plasma (PRP) was obtained by centrifugation (240 g, 15 min). Prostaglandin E1 (PGE1, 2 µM) was added to prevent premature platelet activation, and the plasma was centrifuged at 640 g for 15 min. Platelets were suspended in calcium free Tyrode‘s buffer (CFT buffer, containing: 140 mM NaCl, 5 mM KCl, 10 mM N-2-hydroxyethylpiperazine-N‘-2-ethanesulfonic acid (HEPES), 5 mM Glucose, 0.42 mM NaH2PO4, 12 mM NaHCO3, titrated to pH 7.4 with NaOH) to a final concentration of 2x108 platelet/mL and rested at 37 °C for 1 h prior to experimentation.
Treated washed platelet suspensions (1x10^7/mL) were analysed by flow cytometry using a C6 Accuri Flow Cytometer (Beckton Dickinson, UK), in the presence or absence of Annexin-V-PE (BD Biosciences, UK), anti-PAC-1 (BD Biosciences), anti-CD62 (BD Pharmingen, UK), or anti-CD-63P (BD Pharmingen).
Peptides were used to a final concentration of 10 µM (1 mM DMSO stock solutions). At least 10,000 events were acquired per experiment. The entire platelet population was primarily gated by FSC. […]
(§3) The washed platelet suspension was rested at 37 °C for 1 h before commencing the experiment. […] For real time measurments, the peptides were added to the 250 μL of washed platelet suspension after events were recorded for 1 minute and monitored for a further 4 min. […]
The suspensions were analysed by […]

Bcl-xL = biological target: T1, Bcl-xL (Homo sapiens, UniProt Q07817); experiment: Surface plasmon resonance (SPR) direct binding to Bcl-xL; details: 25 °C
T1 construct: made in house; host or cells: Escherichia coli BL21 Gold DE3
Description: 1.9 Surface Plasmon Resonance (SPR)
The present method utilizes a Surface plasmon resonance (SPR)-based biosensor (BiacoreTM, GE Healthcare,
Uppsala, Sweden) to characterize Bcl-xL peptide interaction partners.
The SPR assay is configured to examine direct binding of peptide s to Bcl-xL derivatized sensor surfaces and
generate relative affinity values (KDapp) to provide relative ranking data for the series of peptides under
BiacoreTM T200 (GE Healthcare, Uppsala, Sweden) was used to conduct all experiments reported herein. Sensor
surface preparation and all interaction analyses experiments were performed at 25 °C utilizing a data collection
rate of 10 Hz. Reagents were purchased from GE Healthcare. Running buffer containing 10 mM Hepes, pH 7.4,
150 mM sodium chloride, 1 mM dithiothreitol, 1% DMSO and 0.05% polysorbate 20 were utilized throughout
surface preparation and all interaction analysis experiments.
Histidine tagged Bcl-xL protein was diluted to 5 μg/mL and captured onto Sensor chip NTA via the following
sequence of injections to achieve a target Bcl-xL surface density of 700 R.U. (response units). The carboxymethyl
dextran surface of Sensor chip NTA was activated by injection of an aqueous solution containing 50 mM N-hydroxy
succinimide (NHS) and 200 mM N-ethyl-N’-(dimethylaminopropyl) carbodiimide (EDC). 500 μM nickel sulfate (NiSO4)
was subsequently injected for one minute and utilized to capture Bcl-xL from a 5 μg/mL solution injected for one
minute. A further one-minute injection of 1M ethanolamine, pH 8.5 was performed to deactivate any unreacted
carboxymethylesters.3 The flow-rate for all injections during surface derivatization was 10 µl/min.

human platelets [2] = experiment: Confocal microscopy of platelets incubated with fluorescently labelled peptides; format: cell-based; details: live washed platelets, 10 µM FITC-labelled peptide, 15 minutes incubation, confocal imaging (Fig. SI_5)
Method: (§4) Fig. 3 A functionalised staple is required to induce peptide uptake into platelets. (A) Platelets were incubated with TAMRA labelled model peptides (10 μM final concentration) for 1 h (white), 2 h (grey) and 3 h incubation (black) and the percentage positive for TAMRA fluorescence was quantified using flow cytometry. (B) Peptides showing high uptake within the first hour were analysed during first 5 min following treatment. Changes in platelet-associated fluorescence were recorded in real time using flow cytometry. Unlabelled platelets were recorded for 30 s prior to addition of the given peptide. (C) Platelets were incubated with 10 μM of TAMRA-model peptides for 1 h prior to imaging by confocal microscopy. ^‡ […]
Peptide uptake experiments of the most permeable model peptides 5, 13–16 were repeated in the presence of platelet-rich plasma (PRP) to ensure realistic conditions (ESI, Fig. SI_2a ^†).
Figure SI_3. […]
Peptides were used to a final concentration of 10 µM. […] Images of TAMRA-labelled model peptide stained platelets were acquired after 1 h incubation1 using with excitation at 565 nm and emission was detected with a 560 -615 nm BP filter. […]
were acquired after 15 minutes incubation1 using excitation at 488 nm and emission was detected with […]

human platelets [3] = experiment: Peptide uptake in washed platelet suspension by flow cytometry; format: cell-based; details: for positive platelets (TAMRA fluorescence), peptide uptake: TAMRA-labelled model peptide 10 μM (1 mM DMSO stock), 37 °C in the dark, 3 h incubation, flow cytometry, mean ± SEM, at least three donors
Method: Washed platelet suspensions were incubated with peptides for varying periods of time and cellular uptake was quantified using flow cytometry. […] Only 34.9 ± 7.8% of platelets were fluorescent following 8 (poly-lysine) treatments after 3 hours. Changes in fluorescence were not observed with other peptides (Fig. 3A).
as §4
In order to explore the rate of peptide uptake, changes in platelet fluorescence were monitored during the first 5 minutes (Fig. 3B) and after 15, 30, 45 and 60 minutes following treatment with peptides (Fig. SI_1, ESI ^†). More than 50% of platelets became fluorescent during the first 15 minutes of incubation with peptides 13–16, with a further increase after the first 45 minutes. Some 40–50% of platelets were fluorescent after 15 minutes following treatment with peptides 2, 5 or 8. No further increase was observed thereafter (Fig. SI_1, ESI ^†).
as §1, §2
Blood was collected into 11 mM sodium citrate and washed platelets were prepared as follows: Platelet-rich plasma (PRP) was obtained by centrifugation (240 g, 15 min). Prostaglandin E1 (PGE1, 2 µM) was added to prevent premature platelet activation, and the plasma was centrifuged at 640 g for 15 min. […]
Treated washed platelet suspensions (1x10^7/mL) were analysed by flow cytometry using a C6 Accuri Flow Cytometer (Beckton Dickinson, UK), in the presence or absence of Annexin-V-PE (BD Biosciences, UK), anti-PAC-1 (BD Biosciences), anti-CD62 (BD Pharmingen, UK), or anti-CD-63P (BD Pharmingen). […]
as §3

human platelets [4] = experiment: PS exposure (annexin-V binding) by flow cytometry; format: cell-based; details: washed human platelets, 10 μM, 37 °C, time course up to 3 h, flow cytometry (Fig. 5A)
Method: Platelet activation markers (% positive platelets) were investigated following 1 h of peptide treatment. […] CD63 binding.
Human blood was collected from healthy volunteers, who had not taken medication for two weeks,
following informed consent in accordance with the Declaration of Helsinki. Blood was collected into 11 mM sodium citrate and washed platelets were prepared as follows: Platelet-rich plasma (PRP) was obtained by centrifugation (240 g, 15 min). Prostaglandin E1 (PGE1, 2 µM) was added to prevent premature platelet activation, and the plasma was centrifuged at 640 g for 15 min. […]
PS exposure was assessed after incubation of 50 µL of washed platelet suspensions at 37 °C in 445 µL of […]
under the protection from direct light and analysed by flow cytometry.
Platelet activation markers (PAC -1, CD62P and CD63 binding) were assessed after incubation of 3 µL of […]
antibody and the peptide (1.1 μL of 1 mM stock solution in DMSO) . The suspensions were analysed by […]

[5] = SPR Biacore T200, His-tagged Bcl-xL on Sensor chip NTA, 7-point 2-fold dilution 33.3 nM to 1.03 nM, steady state fit, Table S1, read-out: Rel. Kdapp
[6] = washed human platelet suspension

T1 sequence (Q07817 whole entry): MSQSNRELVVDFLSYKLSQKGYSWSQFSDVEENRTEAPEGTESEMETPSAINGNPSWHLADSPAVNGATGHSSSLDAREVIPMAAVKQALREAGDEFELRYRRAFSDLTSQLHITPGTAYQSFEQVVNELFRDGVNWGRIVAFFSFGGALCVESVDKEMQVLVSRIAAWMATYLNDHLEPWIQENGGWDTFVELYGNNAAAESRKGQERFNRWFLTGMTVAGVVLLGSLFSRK

In the case of `CN(C)CC[C@H](CSc1ccccc1)Nc1ccc(S(=O)(=O)NC(=O)c2ccc(N3CCN(Cc4ccccc4-c4ccc(Cl)cc4)CC3)cc2)cc1[N+](=O)[O-]` [ABT737], the “PAC1-positive platelets (integrin αIIbβ3 activation)” value (human platelets [1]; washed human platelets in CFT buffer pH 7.4, 10 μM, 37 °C, after 1 hour, flow cytometry, mean ± SEM) is reported as “ineffective” and the “platelet activation markers PAC-1, CD62P, CD63 (in words)” value (human platelets [1]) is reported as “no increase in any activation marker”.

For `CC[C@H](C)[C@H](NC(C)=O)C(=O)N[C@@H](Cc1c[nH]c2ccccc12)C(=O)N[C@H](C(=O)N[C@@H](C)C(=O)N[C@@H](CCC(N)=O)C(=O)N[C@@H](CCC(=O)O)C(=O)N[C@@H](CC(C)C)C(=O)N[C@@H](CCCNC(=N)N)C(=O)N[C@@]1(C)CCCC=CCCC[C@@](C)(C(=O)N[C@@H](Cc2ccccc2)C(=O)N[C@@H](CC(N)=O)C(=O)N[C@@H](C)C(=O)N[C@@H](Cc2ccc(O)cc2)C(=O)N[C@@H](Cc2ccc(O)cc2)C(=O)N[C@@H](C)C(=O)N[C@@H](CCCNC(=N)N)C(=O)N[C@@H](CCCNC(=N)N)C(N)=O)NC(=O)[C@H](CC(=O)O)NC(=O)CNC(=O)[C@H]([C@@H](C)CC)NC1=O)[C@@H](C)CC` [Bim SAHBa, reference compound], the Kd (Bcl-xL; [5]) was greater than 33 nM, the “relative KDapp” value (Bcl-xL; SPR, His-tagged Bcl-xL captured on Sensor chip NTA, steady state affinity, as quoted in main text) was “reduced binding affinity compared to the wild-type and peptide 19” and the “localisation / platelet permeability of FITC-labelled Bim BH3 peptide” value (human platelets [2]) was “able to enter the platelet cytosol”.

For `CC(C)C[C@@H]1NC(=O)[C@H](CC(C)C)NC(=O)[C@H](CCCNC(=N)N)NC(=O)[C@H](Cc2c[nH]c3ccccc23)NC(=O)[C@H](CC(C)C)NC(=O)[C@H](CC(=O)O)NC(=O)[C@@H](NC(=O)[C@H](Cc2ccccc2)NC(=O)[C@@H](NC(=O)[C@H](CCC(=O)O)NC(=O)CCCCCNC(=O)c2ccc3c(c2)C(=O)OC32c3ccc(N(C)C)cc3Oc3cc(N(C)C)ccc32)[C@@H](C)O)CCCn2cc(nn2)-c2cc(C(=O)N[C@@H](CCCNC(=N)N)C(=O)N[C@@H](CCCNC(=N)N)C(N)=O)cc(c2)-c2cn(nn2)CCC[C@@H](C(=O)N[C@@H](CCC(=O)O)C(=O)N[C@@H](CC(N)=O)C(N)=O)NC1=O` [compound 4], the “positive platelets (TAMRA fluorescence), peptide uptake” value (human platelets [3]; [6]) was 73.0 ± 13.3%.

For `CC(C)C[C@@H]1NC(=O)[C@H](CC(C)C)NC(=O)[C@H](CCCNC(=N)N)NC(=O)[C@H](Cc2c[nH]c3ccccc23)NC(=O)[C@H](CC(C)C)NC(=O)[C@H](CC(=O)O)NC(=O)[C@@H](NC(=O)[C@H](Cc2ccccc2)NC(=O)[C@@H](NC(=O)[C@H](CCC(=O)O)NC(=O)CCCCCNC(=O)c2ccc3c(c2)C(=O)OC32c3ccc(N(C)C)cc3Oc3cc(N(C)C)ccc32)[C@@H](C)O)CCCn2cc(nn2)-c2cc(C(=O)N[C@@H](CCCNC(=N)N)C(=O)N[C@@H](CCCNC(=N)N)C(=O)N[C@@H](CCCNC(=N)N)C(N)=O)cc(c2)-c2cn(nn2)CCC[C@@H](C(=O)N[C@@H](CCC(=O)O)C(=O)N[C@@H](CC(N)=O)C(N)=O)NC1=O` [compound 5], the “positive platelets (TAMRA fluorescence), peptide uptake” value (human platelets [3]; [6]) was 87.0 ± 7.3%, the “fluorescent platelets, peptide uptake” value (human platelets [3]; washed human platelet suspension, TAMRA-labelled model peptide 10 μM, 37 °C, first 15 minutes of incubation, flow cytometry (Fig. SI_1)) was 40–50% and the “change in platelet-associated fluorescence in real time” value (human platelets [3]; washed human platelets, TAMRA-labelled peptide, continuous flow cytometry during first 5 minutes of treatment (Fig. 3B)) was “rapid increase in platelet fluorescence”.

For `CC[C@H](C)[C@H](NC(C)=O)C(=O)N[C@@H](Cc1c[nH]c2ccccc12)C(=O)N[C@H](C(=O)N[C@@H](C)C(=O)N[C@@H](CCC(N)=O)C(=O)N[C@@H](CCC(=O)O)C(=O)N[C@@H](CC(C)C)C(=O)N[C@@H](CCCNC(=N)N)C(=O)N[C@H]1CCCn2cc(nn2)-c2cc(C(=O)N[C@@H](CCCNC(=N)N)C(=O)N[C@@H](CCCNC(=N)N)C(=O)N[C@@H](CCCNC(=N)N)C(N)=O)cc(c2)-c2cn(nn2)CCC[C@@H](C(=O)N[C@@H](Cc2ccccc2)C(=O)N[C@@H](CC(N)=O)C(=O)N[C@@H](C)C(=O)N[C@@H](Cc2ccc(O)cc2)C(=O)N[C@@H](Cc2ccc(O)cc2)C(=O)N[C@@H](C)C(=O)N[C@@H](CCCNC(=N)N)C(=O)N[C@@H](CCCNC(=N)N)C(N)=O)NC(=O)[C@H](CC(=O)O)NC(=O)CNC(=O)[C@H]([C@@H](C)CC)NC1=O)[C@@H](C)CC` [peptide 19], the Kd (Bcl-xL; [5]) was 26.2 nM and the Kd (Bcl-xL; SPR, His-tagged Bcl-xL captured on Sensor chip NTA, steady state affinity, as quoted in main text, read-out: relative KDapp) was 26 nM.

`CC[C@H](C)[C@H](NC(C)=O)C(=O)N[C@@H](Cc1c[nH]c2ccccc12)C(=O)N[C@H](C(=O)N[C@@H](C)C(=O)N[C@@H](CCC(N)=O)C(=O)N[C@@H](CCC(=O)O)C(=O)N[C@@H](CC(C)C)C(=O)N[C@@H](CC(=O)O)C(=O)N[C@H]1CCCn2cc(nn2)-c2cc(C(=O)N[C@@H](CCCNC(=N)N)C(=O)N[C@@H](CCCNC(=N)N)C(=O)N[C@@H](CCCNC(=N)N)C(N)=O)cc(c2)-c2cn(nn2)CCC[C@@H](C(=O)N[C@@H](Cc2ccccc2)C(=O)N[C@@H](CC(N)=O)C(=O)N[C@@H](C)C(=O)N[C@@H](Cc2ccc(O)cc2)C(=O)N[C@@H](Cc2ccc(O)cc2)C(=O)N[C@@H](C)C(=O)N[C@@H](CCCNC(=N)N)C(=O)N[C@@H](CCCNC(=N)N)C(N)=O)NC(=O)[C@H](CC(=O)O)NC(=O)CNC(=O)[C@H]([C@@H](C)CC)NC1=O)[C@@H](C)CC` [peptide 21] was tested, and the “Rel. Kdapp” value (Bcl-xL; SPR Biacore T200, His-tagged Bcl-xL on Sensor chip NTA, 7-point 2-fold dilution 33.3 nM to 1.03 nM, steady state fit, Table S1) was “No binding”, the “platelet activation markers PAC-1, CD62P, CD63 (in words)” value (human platelets [1]) was “nonspecific activation was not observed” and the “PS exposure / annexin-V binding (in words)” value (human platelets [4]) was “did not result in PS exposure”.
